Each structure is given as a SMILES string. Converted amounts (≈) assume the structure as drawn. Where a SMILES comes first, the peptide text is derived from it. [ ]: non-standard residue; d: D form. pY = N[C@@H](Cc1ccc(OP(=O)(O)O)cc1)C(=O)O; Dopa = N[C@@H](Cc1ccc(O)c(O)c1)C(=O)O

The values that follow come from US20240207410A1, “STABILIZED LIQUID COMPOSITIONS COMPRISING A LEVODOPA-TYROSINE CONJUGATE AND USES THEREOF” (NeuroDerm, Ltd., priority 2021, published 2024).

Holding throughout (format): physicochemical
Data set [1] is described as follows: Evaluation of solution stability, pH 7.4, 25° C. As to conditions: for HPLC purity difference: phosphate buffer pH 7.4, about 1 mg/mL, 25° C. As for the experimental part:
A phosphate buffer solution at pH 7.4 was added to each of the compounds to dissolve the each of the compounds, and when necessary, a NaOH solution was added to adjust the pH of the mixture to prepare a solution of about 1 mg/mL. After storing this solution at 25° C. for about 1 day, HPLC purity (area percentage, %) was measured. The HPLC purity of the solution immediately after the preparation, or the HPLC purity of the compound, was subtracted from the HPLC purity after storage at 25° C. for about 1 day to obtain a HPLC purity difference. […] In Tables 9-1 and 9-2, “LDP-Ala” represents L-Tyrosine,N-L-alanyl-3-hydroxy-(9CI) and has the following structural formula: […]

Data set [2] can be described thus: Evaluation of solubility in water. As to conditions: for pH of filtrate: filtrate of the solubility test; for solubility at 24 h: thermodynamic from solid, water, shaken at 25° C. for 24 hours. As for the experimental part:
Water was added to each of the compounds to prepare a suspension, which was shaken at 25° C. for 24 hours, and then, filtration through a filter was performed to obtain a filtrate. A compound concentration in the filtrate was quantified using HPLC to obtain the solubility. Further, the pH of the filtrate was measured.

The nature of data set [3]: Evaluation of solution stability, pH 7.4, 60° C. The following applies: phosphate buffer pH 7.4, about 1 mg/mL, after about 1 day. Here is the method:
A phosphate buffer solution at pH 7.4 was added to each of the compounds to dissolve the each of the compounds, and when necessary, a NaOH solution was added to adjust the pH of the mixture to prepare a solution of about 1 mg/mL. After storing this solution at 60° C. for about 1 day, HPLC purity (area percentage, %) was measured. The HPLC purity of the solution immediately after the preparation, or the HPLC purity of the compound, was subtracted from the HPLC purity after storage at 60° C. for about 1 day to obtain a HPLC purity difference.

Data set [4] in a line: Long-term stability of 30% LD-Tyrosine/0.75% carbidopa at 2-8° C. As for the experimental part: The formulation also included 0.5% ascorbic acid (Asc), 0.5% N-acetyl cysteine (NAC) and 0.3% Tween 80. The formulation was stored at 2-8° C. for the time indicated, and % recovery and % LD-Tyr-DKP formation (an impurity) were tested. Percent recovery remained high over time. The DKP impurity accumulated over time.

For the molecule `N[C@@H](Cc1ccc(OP(=O)(O)O)cc1)C(=O)N[C@@H](Cc1ccc(O)c(O)c1)C(=O)O` [Example 10, (2S)-2-[[(2S)-2-amino-3-(4-phosphonooxyphenyl)propanoyl]amino]-3-(3,4-dihydroxyphenyl) propanoic acid] (H-[pY]-[Dopa]-OH), in data set [1] (after about 1 day), the HPLC purity difference was −0.67%.
Turning to `NCCCC[C@H](N)C(=O)N[C@@H](Cc1ccc(OP(=O)(O)O)c(O)c1)C(=O)O` [Example 8, (2S)-2-[[(2S)-2,6-diaminohexanoyl]amino]-3-(3-hydroxy-4-phosphonooxyphenyl) propanoic acid], the “stability in aqueous solutions near neutrality” value in data set [1] is given as “stable”. Moreover, the HPLC purity difference in data set [1] (after 1.9 days) is reported as 0.25 (after 1.9 days) %.
`C[C@H](N)C(=O)N[C@@H](Cc1ccc(OP(=O)(O)O)c(O)c1)C(=O)O` [Example 1, (2S)-2-[[(2S)-2-aminopropanoyl]amino]-3-(3-hydroxy-4-phosphonooxyphenyl) propanoic acid]: the “stability in aqueous solutions near neutrality” value in data set [1] is “stable”. For the same molecule, the values for the HPLC purity difference in data set [1] (after about 1 day) and in data set [3] were −0.03% and −1.61%, respectively. The same molecule returned a pH of filtrate in data set [2] of 2.6. This molecule had a solubility at 24 h in data set [2] of 15.6 mg/mL (≈ 44.8 mM).
For the molecule `C[C@H](N)C(=O)N[C@@H](Cc1ccc(O)c(O)c1)C(=O)O` [LDP-Ala, L-Tyrosine,N-L-alanyl-3-hydroxy-(9CI), reference compound] (H-Ala-[Dopa]-OH), the HPLC purity difference in data set [1] (after about 1 day) is given as −3.80%; in data set [3], −25.00%.
As for `N[C@@H](Cc1ccc(O)c(O)c1)C(=O)N[C@@H](Cc1ccc(OP(=O)(O)O)c(O)c1)C(=O)O` [Example 2, (2S)-2-[[(2S)-2-amino-3-(3,4-dihydroxyphenyl)propanoyl]amino]-3-(3-hydroxy-4-phosphonooxyphenyl) propanoic acid], the HPLC purity difference in data set [1] (after about 1 day) is −3.53%. In addition, in data set [2], the pH of filtrate was determined as 2.6 and the solubility at 24 h is over 31.1 mg/mL.
On to `C[C@@](Cc1ccc(O)c(O)c1)(NN)C(=O)O` [Carbidopa, carbidopa, reference compound], for which the “mg/mL (concentration in formulation)” value is reported as 7.32 mg/mL in data set [4] (1 month); 7.36 mg/mL in data set [4] (1 week); 7.32 mg/mL in data set [4] (2 months); 7.30 mg/mL in data set [4] (2 weeks); 7.35 mg/mL in data set [4] (3 months); 7.37 mg/mL in data set [4] (t = 0).
